Results reported in PMC11768370, “Etodolac Single Dose Metabolic Profile Elucidation: Pharmacokinetics and Adverse Events in Healthy Volunteers” (Pharmaceuticals, 2025).

How the values were obtained:
plasma metabolites = experiment: Untargeted plasma metabolomic profile pre-dose (T0) vs post-dose (Tmax), UPLC-QToF; format: in vivo, human; details: healthy volunteers, single dose 500 mg
Method: Samples were collected at two times: (i) baseline samples (time 0 h), termed the pre-dose group, and (ii) samples at maximum drug concentration (Cmax), termed the post-dose group. Samples were randomized, and 25 μL of each was collected to form a pooled sample for quality control (QC). An aliquot of plasma (200 μL) was extracted by adding cold methanol (400 μL) for protein precipitation. The samples were then vortexed for 30 s and centrifuged at 12,879× g for 10 min at 4 °C. Finally, the supernatant (400 μL) was collected and dried over a stream of nitrogen gas (N2). Samples were resuspended with 200 µL of acetonitrile (ACN)/water (H2O) (1:1 v/v). Sample extraction and analysis were randomized to reduce instrumental and biological bias. QC samples were analyzed every 10 samples to check for variations in extraction and system stability.
The analysis was adapted and performed on an ACQUITY® FTN H Class (Waters, Newcastle, UK) liquid chromatography (UPLC) coupled to a XEVO-G2XS (QToF) quadrupole time-of-flight mass spectrometer (UPLC-QToF) (Waters, Manchester, UK) equipped with an electrospray ionization (ESI) source operated in the positive and negative ionization mode, separately. An ACQUITY UPLC ® CSH C18 column (2.1 mm × 100 mm × 1.7 µm, Waters, Newcastle, UK) was employed as a stationary phase. […]

[1] = design: method as in PMID 36959150; details: cited from earlier work
[2] = Adverse events monitoring by clinical evaluation and laboratory tests after single dose
[3] = 37 healthy volunteers, single dose 500 mg
[4] = Adverse event: Alanine Aminotransferase Increased
[5] = Adverse event: Alkaline Phosphatase Increased
[6] = Adverse event: Altered Erythrogram
[7] = Adverse event: Altered Leukogram
[8] = Adverse event: Decreased Platelet Count
[9] = Adverse event: Fastting Glucose Increased
[10] = Adverse event: Increased Total Bilirubin and Fractions
[11] = Adverse event: Total Cholesterol Increased

In the case of CCc1cccc2c3c([nH]c12)C(CC)(CC(=O)O)OCC3 (stereo not shown) [Etodolac], the “6-ketoprostaglandin E1 relative abundance at Tmax compared to T0” value (plasma metabolites) is listed as “increases twist time in relative abundance”, the “15-epi-lipoxin A4 relative abundance at Tmax compared to T0” value (plasma metabolites) is listed as “increases in relative abundance” and the solubility [1] is listed as “poor solubility”. The “Biopharmaceutics Classification System class” value ([1]; dissolution rate-dependent absorption) was “BCS class II”, the “adverse events: intensity (all events)” value [2, 3] was “mild” and the “adverse events: predictability (all events)” value [2, 3] was “not expected”. The “adverse events recorded (total)” value ([2]; 37 healthy volunteers, single dose 500 mg, results outside reference values) was 19, the “Intensity (Mild / Moderate / Severe / Lethal)” value [2, 4] was “Mild” and the “Predictability (Expected / Not Expected)” value [2, 4] was “Not Expected”. For the same compound, the Events count ([2]; Adverse event: Alanine Aminotransferase Increased, 37 healthy volunteers, single dose 500 mg) was 3, the “Intensity (Mild / Moderate / Severe / Lethal)” value [2, 5] was “Mild” and the “Predictability (Expected / Not Expected)” value [2, 5] was “Not Expected”. The Events count ([2]; Adverse event: Alkaline Phosphatase Increased, 37 healthy volunteers, single dose 500 mg) was 1, the “Intensity (Mild / Moderate / Severe / Lethal)” value [2, 6] was “Mild” and the “Predictability (Expected / Not Expected)” value [2, 6] was “Not Expected”. For the same compound, the Events count ([2]; Adverse event: Altered Erythrogram, 37 healthy volunteers, single dose 500 mg) was 3, the “Intensity (Mild / Moderate / Severe / Lethal)” value [2, 7] was “Mild” and the “Predictability (Expected / Not Expected)” value [2, 7] was “Not Expected”. The Events count ([2]; Adverse event: Altered Leukogram, 37 healthy volunteers, single dose 500 mg) was 3, the “Intensity (Mild / Moderate / Severe / Lethal)” value [2, 8] was “Mild” and the “Predictability (Expected / Not Expected)” value [2, 8] was “Not Expected”. For the same compound, the Events count ([2]; Adverse event: Decreased Platelet Count, 37 healthy volunteers, single dose 500 mg) was 1, the “Intensity (Mild / Moderate / Severe / Lethal)” value [2, 9] was “Mild” and the “Predictability (Expected / Not Expected)” value [2, 9] was “Not Expected”. The Events count ([2]; Adverse event: Fastting Glucose Increased, 37 healthy volunteers, single dose 500 mg) was 3, the “Intensity (Mild / Moderate / Severe / Lethal)” value [2, 10] was “Mild” and the “Predictability (Expected / Not Expected)” value [2, 10] was “Not Expected”. The Events count ([2]; Adverse event: Increased Total Bilirubin and Fractions, 37 healthy volunteers, single dose 500 mg) was 1, the “Intensity (Mild / Moderate / Severe / Lethal)” value ([2]; Adverse event: Leukocyturia) was “Mild” and the “Predictability (Expected / Not Expected)” value ([2]; Adverse event: Leukocyturia) was “Not Expected”. For the same compound, the Events count ([2]; Adverse event: Leukocyturia, 37 healthy volunteers, single dose 500 mg) was 1, the “Intensity (Mild / Moderate / Severe / Lethal)” value [2, 11] was “Mild” and the “Predictability (Expected / Not Expected)” value [2, 11] was “Not Expected”. The Events count ([2]; Adverse event: Total Cholesterol Increased, 37 healthy volunteers, single dose 500 mg) was 3.
